Results published in BindingDB's records for doi:10.7270/Q2028PZ5 (Burnham Center For Chemical Genomics, 2010).

Target: G-protein coupled receptor 55 (Homo sapiens, UniProt Q9Y2T6)
Assay: GPR55 antagonists, SAR follow-up, counter-screen for GPR35 antagonist project, imaging, image-based (AID 2397)
Conditions: inactive by the depositor's call

G-protein coupled receptor 55, sequence (Q9Y2T6 whole entry): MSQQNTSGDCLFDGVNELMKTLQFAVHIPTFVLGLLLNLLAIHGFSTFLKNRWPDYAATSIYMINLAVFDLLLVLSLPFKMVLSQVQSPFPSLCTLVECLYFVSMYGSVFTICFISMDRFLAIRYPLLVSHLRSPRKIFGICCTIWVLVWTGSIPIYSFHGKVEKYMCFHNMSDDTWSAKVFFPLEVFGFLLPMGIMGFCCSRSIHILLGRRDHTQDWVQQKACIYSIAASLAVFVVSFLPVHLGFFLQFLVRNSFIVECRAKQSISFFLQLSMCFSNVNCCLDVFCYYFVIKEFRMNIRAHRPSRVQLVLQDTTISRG

IC50: 21.7 µM
SMILES: CC(/C=C1\SC(=S)N(CCCC(=O)Nc2ccc(C(=O)O)c(O)c2)C1=O)=C\c1ccccc1 [2-hydroxy-4-[[4-[(5Z)-5-[(E)-2-methyl-3-phenylprop-2-enylidene]-4-oxo-2-sulfanylidene-3-thiazolidinyl]-1-oxobutyl]amino]benzoic acid]
